This passage reports IC50 and EC50 results from patent US20250059174A1, “Pharmaceutical Compounds and Compositions as C-Kit Kinase Inhibitors” (Enanta Pharmaceuticals, Inc., priority 2023, published 2025).

A value given as a limit tells only on which side of the number the result lay.

The target in assay [1] is Recombinant human c-KIT kinase (Homo sapiens (Human), UniProt P10721). As to the kind of experiment: c-KIT kinase chemiluminescence assay (ADP-Glo). It counts as biochemical. Particulars: ATP 50 μM. Summed up: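 ADP formed by c-KIT on polyEY over 2 h at RT (after 30 min enzyme preincubation; Tris pH 7.5, MgCl2, BSA, DTT buffer) was detected by ADP-Glo luminescence. IC50 and Hill slope were fitted to control-normalized activity across compound concentrations.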

Assay [2] relates to M-07e cells. As to the kind of experiment: M-07e cellular assay (SCF-mediated cell proliferation). Particulars: Homo sapiens, 72 hours, CellTiter Glo. In kind it is cell-based. Summed up: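 Readout came from CellTiter Glo after 72 h of compound treatment in SCF (EC90)-stimulated, pre-starved M-07e cells at 37 °C.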

Sequence of Recombinant human c-KIT kinase (P10721 26-976): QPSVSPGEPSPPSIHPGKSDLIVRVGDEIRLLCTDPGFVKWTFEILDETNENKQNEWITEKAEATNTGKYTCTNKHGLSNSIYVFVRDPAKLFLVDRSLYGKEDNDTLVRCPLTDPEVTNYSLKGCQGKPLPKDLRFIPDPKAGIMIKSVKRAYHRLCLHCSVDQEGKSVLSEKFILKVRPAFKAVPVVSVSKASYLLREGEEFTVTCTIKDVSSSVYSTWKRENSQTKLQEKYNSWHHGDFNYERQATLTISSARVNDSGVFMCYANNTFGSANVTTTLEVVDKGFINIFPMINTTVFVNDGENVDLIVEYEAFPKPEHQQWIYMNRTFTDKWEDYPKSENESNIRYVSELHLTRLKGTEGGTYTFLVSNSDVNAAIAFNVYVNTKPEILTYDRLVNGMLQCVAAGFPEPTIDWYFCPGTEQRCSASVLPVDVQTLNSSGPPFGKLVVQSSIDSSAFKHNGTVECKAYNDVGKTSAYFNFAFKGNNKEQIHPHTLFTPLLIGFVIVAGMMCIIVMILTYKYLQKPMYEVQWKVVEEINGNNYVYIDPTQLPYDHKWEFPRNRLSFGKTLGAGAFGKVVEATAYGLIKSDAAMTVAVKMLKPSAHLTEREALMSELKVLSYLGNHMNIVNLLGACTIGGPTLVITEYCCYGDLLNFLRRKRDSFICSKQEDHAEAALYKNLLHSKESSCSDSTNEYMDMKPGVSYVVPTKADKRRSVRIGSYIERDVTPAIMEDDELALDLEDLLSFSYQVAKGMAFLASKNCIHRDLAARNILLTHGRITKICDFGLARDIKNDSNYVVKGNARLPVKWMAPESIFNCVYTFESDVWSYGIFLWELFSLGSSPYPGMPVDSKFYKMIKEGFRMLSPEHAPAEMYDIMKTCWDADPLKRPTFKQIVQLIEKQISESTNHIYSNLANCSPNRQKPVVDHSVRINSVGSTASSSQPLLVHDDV

On to `Cc1nnc(N2CC(c3nc(-c4cnc(C)c(NC(=O)c5cnn6ccc(N7CC8(COC8)C7)cc56)c4)no3)C2)o1` [Example 281-71], for which, in assay [1], the IC50 is > 1 µM. In assay [2], the EC50 is > 1 µM.
In the case of `Cc1ccc(-c2noc(C3CN(C(=O)[C@H]4C[C@@H]4F)C3)n2)cc1NC(=O)c1cnn2ccc(N3CC4(C3)CC(O)(C(F)F)C4)cc12` [Example 281-34], the IC50 in assay [1] was 0.1 to 1 µM. The compound further registered an EC50 in assay [2] of 0.1 to 1 µM.
Consider `Cc1ccc(-c2noc([C@H]3C[C@@H]3F)n2)cc1NC(=O)c1cnn2ccc(NCC3(CO)COC3)cc12` [Example 241-8], for which the IC50 in assay [1] was < 0.1 µM. Moreover, the EC50 in assay [2] is < 0.1 µM.
As for `COC(=O)N1CC(c2nc(-c3ccc(C)c(NC(=O)c4cnn5cc(-c6cn(C(F)F)nn6)ccc45)c3)no2)C1` [Example 132-15], the IC50 in assay [1] is < 0.1 µM. In addition, the EC50 in assay [2] was < 0.1 µM.
For `Cc1ncc(-c2noc(C3CN(C(=O)[C@H]4C[C@@H]4F)C3)n2)cc1NC(=O)c1cnn2ccc(N3CC4(COC4)C3)cc12` [Example 281-80], in assay [1], the half-inhibitory concentration (IC50) is > 1 µM. The half-maximal effective concentration (EC50) in assay [2] was > 1 µM.
Turning to `Cc1ccc(-c2noc([C@H]3C[C@@H]3F)n2)cc1NC(=O)c1cnc(-c2ccc3c(c2)CCC(=O)N3)o1` [Example 308-15], the IC50 in assay [1] was in the range of 0.1 to 1 µM. Besides, the EC50 in assay [2] was 0.1 to 1 µM.
